Experimental data: the supplement of paper PMC10307832

Key:
Test in all cases: relative viability (nuclei count vs DMSO), 5 days (fraction); higher = more cells survive
IU1-47 + Bortezomib = compound: CC1=CC(=C(N1C2=CC=C(C=C2)Cl)C)C(=O)CN3CCCCC3 [IU1-47] + CC(C)C[C@H](NC(=O)[C@H](Cc1ccccc1)NC(=O)c1cnccn1)B(O)O [Bortezomib] (partner 0.002 µM)
Outline: (§1)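 One day after seeding in 1536-well plates, lung cancer cell lines were dosed by pin tool. Dosing was either single-drug or a fixed anchor-drug dose plus five library-drug doses (not always all listed) in √10 steps. After 5 days, nuclei were stained in one fix-and-stain step and counted on 4× images, and relative viability is the nuclei count of treated wells over that of vehicle wells, given as the median of duplicate plates.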

IU1-47 + Linsitinib = compound: CC1=CC(=C(N1C2=CC=C(C=C2)Cl)C)C(=O)CN3CCCCC3 [IU1-47] + C[C@]1(O)C[C@@H](c2nc(-c3ccc4ccc(-c5ccccc5)nc4c3)c3c(N)nccn32)C1 [Linsitinib] (partner 1 µM)
Outline: as §1

IU1-47 + Navitoclax = compound: CC1=CC(=C(N1C2=CC=C(C=C2)Cl)C)C(=O)CN3CCCCC3 [IU1-47] + CC1(C)CCC(c2ccc(Cl)cc2)=C(CN2CCN(c3ccc(C(=O)NS(=O)(=O)c4ccc(N[C@H](CCN5CCOCC5)CSc5ccccc5)c(S(=O)(=O)C(F)(F)F)c4)cc3)CC2)C1 [Navitoclax] (partner 0.5 µM)
Outline: as §1

FG-4592 + Alpelisib = compound: Cc1nc(C(=O)NCC(=O)O)c(O)c2ccc(Oc3ccccc3)cc12 [FG-4592] + Cc1nc(NC(=O)N2CCC[C@H]2C(N)=O)sc1-c1ccnc(C(C)(C)C(F)(F)F)c1 [Alpelisib] (partner 2 µM)
Outline: as §1

Cell Line: UMC-11
- relative viability (IU1-47 + Bortezomib; first compound 0.08 µM): 0.653
- relative viability (IU1-47 + Bortezomib; first compound 0.253 µM): 0.618
- relative viability (IU1-47 + Bortezomib; first compound 0.8 µM): 0.673
- relative viability (IU1-47 + Bortezomib; first compound 2.53 µM): 1.04
- relative viability (IU1-47 + Bortezomib; first compound 8 µM): 0.575
- relative viability (IU1-47 + Linsitinib; first compound 0.08 µM): 0.996
- relative viability (IU1-47 + Linsitinib; first compound 0.253 µM): 0.978
- relative viability (IU1-47 + Linsitinib; first compound 0.8 µM): 1.12
- relative viability (IU1-47 + Linsitinib; first compound 2.53 µM): 1.07
- relative viability (IU1-47 + Linsitinib; first compound 8 µM): 0.952
- relative viability (IU1-47 + Navitoclax; first compound 0.08 µM): 0.297
- relative viability (IU1-47 + Navitoclax; first compound 0.253 µM): 0.315
- relative viability (IU1-47 + Navitoclax; first compound 0.8 µM): 0.329
- relative viability (IU1-47 + Navitoclax; first compound 2.53 µM): 0.349
- relative viability (IU1-47 + Navitoclax; first compound 8 µM): 0.313
- relative viability (FG-4592 + Alpelisib; first compound 0.08 µM): 1.03
- relative viability (FG-4592 + Alpelisib; first compound 0.253 µM): 0.944
- relative viability (FG-4592 + Alpelisib; first compound 0.8 µM): 1
- relative viability (FG-4592 + Alpelisib; first compound 2.53 µM): 1.18
- relative viability (FG-4592 + Alpelisib; first compound 8 µM): 0.998
